The values below come from ChEMBL document CHEMBL4428025 (J Med Chem, 2016).

Data set [1] is described as follows: Ratio of drug level in brain to plasma in CD rat at 10 to 70 mg/kg, po administered through gavage measured at 6 hrs. It counts as ADME, organism-based. The conditions noted are these: read-out: BPR.
The nature of data set [2]: Oral bioavailability in Wistar rat at 0.3 mg/kg. The conditions noted are these: in vivo. It is filed as ADME, organism-based.
The nature of data set [3]: Oral bioavailability in cynomolgus monkey at 0.3 mg/kg. It is filed as ADME, organism-based, Macaca fascicularis. The conditions noted are these: in vivo.

Each structure is given as a SMILES string.

For the compound `NC(=O)C1(c2ccccc2)CC2CCC(C1)N2C(c1ccccc1Cl)c1ccccc1Cl` (stereo not drawn), the Kp at 6 h in data set [1] lay in the range of 0.43 to 0.59.
As usually defined, the bioavailability is dose-corrected exposure relative to a reference, in per cent. On to `O=C1NCN(c2ccccc2)C12CCN([C@@H]1CC[C@H]3CCCc4cccc1c43)CC2`, for which the bioavailability in data set [2] turned out to be 4%; in data set [3] it was 1%.
